{
  "source": "the supplement of paper PMC11208160",
  "data": [
    {"experiment": "recombinant UMI read abundance after kanamycin selection (control-corrected) (log10(CPM+1)); higher = more efficient recombination; extreme values may be limits of the assay; sequences stand for … in AGTGCAGAGAAAATCGGCCAGTTTTCTCTGCCTGCAGTCCGCATGCCGTGGGACCCCTTGGGTTCTAACCTGTTGCCTAGATTTATGCAGCGGACTGCCTTTCTCCCAAAGTGATAAACCGG…AGGTTGGTTTCACT; site = the 11-nt donor", "method_in_brief": "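Values are reported as log10(CPM+1), obtained by converting sequencing counts to CPM, averaging replicates and scaling by control-derived factors. The counts came from recombinant UMIs amplified by PCR across the donor–target junction. These UMIs came from a pooled Escherichia coli screen of donor and donor-binding-loop pairs for the IS621 bridge recombinase, plated with IPTG (0.07 mM) plus kanamycin or left unselected, in two replicates each.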", "values": [
      {"sequence": "GCTGCGCCATGGACCGGTTTTCCCGGTAATCCGTATTTGGA (site GCTGCGCCTTC)", "recombinant UMI read abundance (log10)": 0.0238},
      {"sequence": "GCTGGGACATGGACCGGTTTTCCCGGTAATCCGTATTTGTG (site GCTGGGACTCA)", "recombinant UMI read abundance (log10)": 0.944},
      {"sequence": "GCTGGTACATGGACCGGTTTTCCCGGTAATCCGTATTTGCG (site GCTGGTACTCG)", "recombinant UMI read abundance (log10)": 1.68},
      {"sequence": "GCTGTGTCATGGACCGGTTTTCCCGGTAATCCGTATTTGCG (site GCTGTGTCTCG)", "recombinant UMI read abundance (log10)": 2.07},
      {"sequence": "GCTTAAGCATGGACCGGTTTTCCCGGTAATCCGTATTTGCC (site GCTTAAGCTGG)", "recombinant UMI read abundance (log10)": 0.666},
      {"sequence": "GCTTACACATGGACCGGTTTTCCCGGTAATCCGTATTTGCG (site GCTTACACTCG)", "recombinant UMI read abundance (log10)": 1.72},
      {"sequence": "GCTTACCCATGGACCGGTTTTCCCGGTAATCCGTATTTGAT (site GCTTACCCTAT)", "recombinant UMI read abundance (log10)": 0.0241},
      {"sequence": "GCTTACCCATGGACCGGTTTTCCCGGTAATCCGTATTTGAT (site GCTTCCCCTAT)", "recombinant UMI read abundance (log10)": 0},
      {"sequence": "GCTTACCCATGGACCGGTTTTCCCGGTAATCCGTATTTGAT (site GCTTGCCCTAT)", "recombinant UMI read abundance (log10)": 0.0186},
      {"sequence": "GCTTACCCATGGACCGGTTTTCCCGGTAATCCGTATTTGAT (site GCTTTCCCTAT)", "recombinant UMI read abundance (log10)": 0},
      {"sequence": "GCTTATCCATGGACCGGTTTTCCCGGTAATCCGTATTTGCT (site GATTATCCTAG)", "recombinant UMI read abundance (log10)": 0},
      {"sequence": "GCTTATCCATGGACCGGTTTTCCCGGTAATCCGTATTTGCT (site GCTTATCCTAG)", "recombinant UMI read abundance (log10)": 1.03},
      {"sequence": "GCTTATCCATGGACCGGTTTTCCCGGTAATCCGTATTTGCT (site GGTTATCCTAG)", "recombinant UMI read abundance (log10)": 0},
      {"sequence": "GCTTATCCATGGACCGGTTTTCCCGGTAATCCGTATTTGCT (site GTTTATCCTAG)", "recombinant UMI read abundance (log10)": 0},
      {"sequence": "GCTTCCGCATGGACCGGTTTTCCCGGTAATCCGTATTTGTT (site GCTTCCGCTAA)", "recombinant UMI read abundance (log10)": 1.48},
      {"sequence": "GCTTCTACATGGACCGGTTTTCCCGGTAATCCGTATTTGTA (site GCTTCTACTTA)", "recombinant UMI read abundance (log10)": 0.541},
      {"sequence": "GCTTGACCATGGACCGGTTTTCCCGGTAATCCGTATTTGAT (site GCTTGACCTAT)", "recombinant UMI read abundance (log10)": 0.00317},
      {"sequence": "GCTTGACCATGGACCGGTTTTCCCGGTAATCCGTATTTGAT (site GCTTGCCCTAT)", "recombinant UMI read abundance (log10)": 0.00707},
      {"sequence": "GCTTGACCATGGACCGGTTTTCCCGGTAATCCGTATTTGAT (site GCTTGGCCTAT)", "recombinant UMI read abundance (log10)": 0.117},
      {"sequence": "GCTTGACCATGGACCGGTTTTCCCGGTAATCCGTATTTGAT (site GCTTGTCCTAT)", "recombinant UMI read abundance (log10)": 0.00374},
      {"sequence": "GCTTGCCCATGGACCGGTTTTCCCGGTAATCCGTATTTGAA (site GCTTGCCCTAT)", "recombinant UMI read abundance (log10)": 0},
      {"sequence": "GCTTGCCCATGGACCGGTTTTCCCGGTAATCCGTATTTGAA (site GCTTGCCCTCT)", "recombinant UMI read abundance (log10)": 0.00774},
      {"sequence": "GCTTGCCCATGGACCGGTTTTCCCGGTAATCCGTATTTGAA (site GCTTGCCCTGT)", "recombinant UMI read abundance (log10)": 0},
      {"sequence": "GCTTGCCCATGGACCGGTTTTCCCGGTAATCCGTATTTGAA (site GCTTGCCCTTT)", "recombinant UMI read abundance (log10)": 0.0264},
      {"sequence": "GCTTGCCCATGGACCGGTTTTCCCGGTAATCCGTATTTGAC (site GCTTGCCCTAT)", "recombinant UMI read abundance (log10)": 0},
      {"sequence": "GCTTGCCCATGGACCGGTTTTCCCGGTAATCCGTATTTGAC (site GCTTGCCCTCT)", "recombinant UMI read abundance (log10)": 0.0563},
      {"sequence": "GCTTGCCCATGGACCGGTTTTCCCGGTAATCCGTATTTGAC (site GCTTGCCCTGT)", "recombinant UMI read abundance (log10)": 0},
      {"sequence": "GCTTGCCCATGGACCGGTTTTCCCGGTAATCCGTATTTGAC (site GCTTGCCCTTT)", "recombinant UMI read abundance (log10)": 0.0621},
      {"sequence": "GCTTGGACATGGACCGGTTTTCCCGGTAATCCGTATTTGGA (site GCTTGGACTTC)", "recombinant UMI read abundance (log10)": 0.32},
      {"sequence": "GGAAATCCATGGACCGGTTTTCCCGGTAATCCGTATTTGGG (site GGAAATCCTCC)", "recombinant UMI read abundance (log10)": 0.00368},
      {"sequence": "GGAACGTCATGGACCGGTTTTCCCGGTAATCCGTATTTGTT (site GGAACGTCTAA)", "recombinant UMI read abundance (log10)": 0.993},
      {"sequence": "GGAACGTCATGGACCGGTTTTCCCGGTAATCCGTATTTGTT (site GGCACGTCTAA)", "recombinant UMI read abundance (log10)": 0.00816},
      {"sequence": "GGAACGTCATGGACCGGTTTTCCCGGTAATCCGTATTTGTT (site GGGACGTCTAA)", "recombinant UMI read abundance (log10)": 0.28},
      {"sequence": "GGAACGTCATGGACCGGTTTTCCCGGTAATCCGTATTTGTT (site GGTACGTCTAA)", "recombinant UMI read abundance (log10)": 0.00512},
      {"sequence": "GGAACTACATGGACCGGTTTTCCCGGTAATCCGTATTTGCC (site GGAACTACTGG)", "recombinant UMI read abundance (log10)": 1.05},
      {"sequence": "GGAAGCACATGGACCGGTTTTCCCGGTAATCCGTATTTGGG (site GGAAGCACTCC)", "recombinant UMI read abundance (log10)": 0.0218},
      {"sequence": "GGAAGTACATGGACCGGTTTTCCCGGTAATCCGTATTTGAC (site GGAAGTACTGT)", "recombinant UMI read abundance (log10)": 2.57},
      {"sequence": "GGAAGTGCATGGACCGGTTTTCCCGGTAATCCGTATTTGAA (site GGAAGTGCTTT)", "recombinant UMI read abundance (log10)": 2.27},
      {"sequence": "GGAATCTCATGGACCGGTTTTCCCGGTAATCCGTATTTGAA (site GGAATCTCTTT)", "recombinant UMI read abundance (log10)": 2.55},
      {"sequence": "GGAATGTCATGGACCGGTTTTCCCGGTAATCCGTATTTGTT (site GGAATGTCTAA)", "recombinant UMI read abundance (log10)": 2.44},
      {"sequence": "GGAGACGCATGGACCGGTTTTCCCGGTAATCCGTATTTGGT (site GGAGACGCTAC)", "recombinant UMI read abundance (log10)": 0.461},
      {"sequence": "GGAGCCTCATGGACCGGTTTTCCCGGTAATCCGTATTTGAC (site GGAGCCTCTGT)", "recombinant UMI read abundance (log10)": 2.15},
      {"sequence": "GGAGCTACATGGACCGGTTTTCCCGGTAATCCGTATTTGAG (site GGAGCTACTCT)", "recombinant UMI read abundance (log10)": 0.606},
      {"sequence": "GGAGGCGCATGGACCGGTTTTCCCGGTAATCCGTATTTGCC (site GGAGGCGCTGG)", "recombinant UMI read abundance (log10)": 3.44},
      {"sequence": "GGAGGGGCATGGACCGGTTTTCCCGGTAATCCGTATTTGGT (site GGAGAGGCTAC)", "recombinant UMI read abundance (log10)": 0.335},
      {"sequence": "GGAGGGGCATGGACCGGTTTTCCCGGTAATCCGTATTTGGT (site GGAGCGGCTAC)", "recombinant UMI read abundance (log10)": 0.00457},
      {"sequence": "GGAGGGGCATGGACCGGTTTTCCCGGTAATCCGTATTTGGT (site GGAGGGGCTAC)", "recombinant UMI read abundance (log10)": 0.699},
      {"sequence": "GGAGGGGCATGGACCGGTTTTCCCGGTAATCCGTATTTGGT (site GGAGTGGCTAC)", "recombinant UMI read abundance (log10)": 0.0205},
      {"sequence": "GGAGTGGCATGGACCGGTTTTCCCGGTAATCCGTATTTGGG (site GGAGTGGCTAC)", "recombinant UMI read abundance (log10)": 0.497},
      {"sequence": "GGAGTGGCATGGACCGGTTTTCCCGGTAATCCGTATTTGGG (site GGAGTGGCTCC)", "recombinant UMI read abundance (log10)": 0.779},
      {"sequence": "GGAGTGGCATGGACCGGTTTTCCCGGTAATCCGTATTTGGG (site GGAGTGGCTGC)", "recombinant UMI read abundance (log10)": 0},
      {"sequence": "GGAGTGGCATGGACCGGTTTTCCCGGTAATCCGTATTTGGG (site GGAGTGGCTTC)", "recombinant UMI read abundance (log10)": 0.00897},
      {"sequence": "GGAGTTGCATGGACCGGTTTTCCCGGTAATCCGTATTTGGT (site GGAGTAGCTAC)", "recombinant UMI read abundance (log10)": 0.089},
      {"sequence": "GGAGTTGCATGGACCGGTTTTCCCGGTAATCCGTATTTGGT (site GGAGTCGCTAC)", "recombinant UMI read abundance (log10)": 1.05},
      {"sequence": "GGAGTTGCATGGACCGGTTTTCCCGGTAATCCGTATTTGGT (site GGAGTGGCTAC)", "recombinant UMI read abundance (log10)": 0.00345},
      {"sequence": "GGAGTTGCATGGACCGGTTTTCCCGGTAATCCGTATTTGGT (site GGAGTTGCTAC)", "recombinant UMI read abundance (log10)": 0.861},
      {"sequence": "GGATACACATGGACCGGTTTTCCCGGTAATCCGTATTTGGG (site GGATACACTCC)", "recombinant UMI read abundance (log10)": 0.348},
      {"sequence": "GGATAGACATGGACCGGTTTTCCCGGTAATCCGTATTTGCT (site GGATAGACTAG)", "recombinant UMI read abundance (log10)": 2.78},
      {"sequence": "GGATAGACATGGACCGGTTTTCCCGGTAATCCGTATTTGCT (site GGATAGACTCG)", "recombinant UMI read abundance (log10)": 0.855},
      {"sequence": "GGATAGACATGGACCGGTTTTCCCGGTAATCCGTATTTGCT (site GGATAGACTGG)", "recombinant UMI read abundance (log10)": 2.33},
      {"sequence": "GGATAGACATGGACCGGTTTTCCCGGTAATCCGTATTTGCT (site GGATAGACTTG)", "recombinant UMI read abundance (log10)": 1.1},
      {"sequence": "GGATAGCCATGGACCGGTTTTCCCGGTAATCCGTATTTGAG (site GGATAGCCTCT)", "recombinant UMI read abundance (log10)": 0.00752},
      {"sequence": "GGATAGCCATGGACCGGTTTTCCCGGTAATCCGTATTTGCC (site GGATAGACTGG)", "recombinant UMI read abundance (log10)": 0},
      {"sequence": "GGATAGCCATGGACCGGTTTTCCCGGTAATCCGTATTTGCC (site GGATAGCCTGG)", "recombinant UMI read abundance (log10)": 0},
      {"sequence": "GGATAGCCATGGACCGGTTTTCCCGGTAATCCGTATTTGCC (site GGATAGGCTGG)", "recombinant UMI read abundance (log10)": 0},
      {"sequence": "GGATAGCCATGGACCGGTTTTCCCGGTAATCCGTATTTGCC (site GGATAGTCTGG)", "recombinant UMI read abundance (log10)": 2.42},
      {"sequence": "GGATAGGCATGGACCGGTTTTCCCGGTAATCCGTATTTGCC (site GGATAGACTGG)", "recombinant UMI read abundance (log10)": 1.94},
      {"sequence": "GGATAGGCATGGACCGGTTTTCCCGGTAATCCGTATTTGCC (site GGATAGCCTGG)", "recombinant UMI read abundance (log10)": 0.855}
    ]}
  ]
}
